Source: paper PMC3038857, “Using Nuclear Receptor Activity to Stratify Hepatocarcinogens” (PLoS ONE, 2011)
Read-outs that look alike come from different tables or passages of the source.

What was measured:
[1] = system: Rat Liver; conditions: ref ToxRefDB, cited from earlier work
[2] = system: LXRa (NR1H2); test: NCGC_LXR_Agonist: GAL4 BLAM Reporter gene assay: LXRa; format: cell-based, human; conditions: agonist mode
Method: These assays measure binding constants and enzyme inhibition values for nuclear receptors. The targets include [drawing 67] , [drawing 68] , [drawing 69] , [drawing 70] , [drawing 71] , [drawing 72] , [drawing 73] , [drawing 74] , [drawing 75] and [drawing 76] . Each of the nuclear receptor targets was measured in agonist mode. Assays were run at the NIH Chemical Genomics Center (Rockville, MD).
Cell-based HTS Assays: These assays measuring binding constants and enzyme inhibition values for nuclear receptors. The targets include AR, ER, FXR, LXR, PPARα, PPARδ, PPARγ, RXRα, RXRβ and PXR. Each of the nuclear receptor targets was measured in both agonist and antagonist mode, but the antagonist data is still undergoing analysis due to possible interference between cytotoxicity and assay activity, so antagonist mode data were not used in the present analysis. Assays were run at the NIH Chemical Genomics Center (Rockville, MD) as part of the Tox21 collaboration. […] The R^2 was required to be ≥0.5. Values where only the highest concentration exceeded 50% activity were excluded to eliminate weak or false positives. Detailed description of the methods, data and analysis methods for this dataset will be presented in a separate publication.

[3] = target: T1, PXR (NR1I2) (Homo sapiens, UniProt O75469); test: ATG_PXRE_CIS: Factorial reporter gene assay (HepG2); format: cell-based; parameters: endogenous in cells; host or cells: HepG2; conditions: HepG2 reporter
T1 sequence (O75469 1-434): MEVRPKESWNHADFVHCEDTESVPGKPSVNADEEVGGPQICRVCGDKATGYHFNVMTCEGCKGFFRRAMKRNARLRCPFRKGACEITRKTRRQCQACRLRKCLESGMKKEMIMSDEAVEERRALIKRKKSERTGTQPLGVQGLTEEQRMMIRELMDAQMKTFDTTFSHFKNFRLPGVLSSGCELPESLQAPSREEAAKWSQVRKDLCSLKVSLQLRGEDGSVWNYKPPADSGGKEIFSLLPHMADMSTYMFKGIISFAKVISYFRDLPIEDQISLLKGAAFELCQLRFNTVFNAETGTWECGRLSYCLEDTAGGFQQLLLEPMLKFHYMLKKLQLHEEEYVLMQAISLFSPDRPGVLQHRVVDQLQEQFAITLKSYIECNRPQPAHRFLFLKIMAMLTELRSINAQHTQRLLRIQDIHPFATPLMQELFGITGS
Outline: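 Compounds at seven concentrations (top at MTC, threefold serial) were applied to transfected HepG2 hepatoma cells, with PXRE scored by cis-element reporters and ERRg, FXR and PPARg scored by trans one-hybrid nuclear receptor reporters.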

[4] = system: Rat Liver; conditions: ref ToxRefDB, cited from earlier work; remark: listed apart in the source
[5] = system: Rat Liver; conditions: ref ToxRefDB, cited from earlier work; remark: listed apart in the source
[6] = system: HMGCS2; test: CLZD_HMGCS2: Change in expression of HMGCS2 (primary human hepatocytes); format: cell-based; conditions: 24 hr
Method: This is a collection of multiplexed gene expression assays focused on Phase I and II xenobiotic metabolizing enzymes and transporters. Human primary cell cultures were treated with chemicals at 5 concentrations (0.004-40 [drawing 42] M) for 6, 24 and 48 hr. Concentration- and time-response profiles of chemicals were measured by the expression of key nuclear receptor target genes, activities of CYP1A enzymes (EROD), and cell morphology. Fourteen gene targets were monitored by quantitative nuclease protection assay including: six representative cytochrome P-450 genes, four hepatic transporters, three Phase II conjugating enzymes, and one endogenous metabolism gene involved in cholesterol synthesis. The target genes associated with nuclear receptor pathways are as follows: [drawing 43] and [drawing 44] with [drawing 45]; [drawing 46] , [drawing 47] , [drawing 48] , [drawing 49] , [drawing 50] and [drawing 51] with [drawing 52]; [drawing 53] , [drawing 54] , [drawing 55] and [drawing 56] with [drawing 57]; [drawing 58] with [drawing 59]; and [drawing 60] with [drawing 61] . Assays were run in primary human hepatocyte cultures by CellzDirect Invitrogen Inc. (Durham, NC), in collaboration with EPA.
Multiplexed Gene Expression in Human Primary Hepatocytes: This is a collection of multiplexed gene expression assays focused on Phase I and II metabolic enzymes and transporters. […] Fourteen gene targets were monitored by quantitative nuclease protection assay: six representative cytochrome P450 genes, four hepatic transporters, three Phase II conjugating enzymes, and one endogenous metabolism gene involved in cholesterol synthesis. Cells were exposed at 5 concentrations (0.004-40 µM) for 6, 24 or 48 hr. Gene targets are sentinels for five nuclear receptor signaling pathways: AhR, CAR, PXR, FXR, and PPARα. All gene are associated with nuclear receptor pathways: CYP1A1 and CYP1A2 with AHR; ABCB1, ABCG2, CYP2B6, CYP2C9, CYP2C19 and UGT1A1 with CAR; CYP3A4, GSTA2, SLCO1B1 and SULT2A1 with PXR; HMGCS2 with PPARA; and ABCB11 with FXR. […] Detailed description of the methods, data and analysis methods for this dataset will be presented in a separate publication.

[7] = system: Mouse Liver; conditions: chronic study, mouse liver; ref ToxRefDB; cited from earlier work
[8] = system: Mouse Liver; conditions: ref ToxRefDB, cited from earlier work
[9] = system: Mouse Liver; conditions: chronic study, mouse liver; ref ToxRefDB; cited from earlier work; remark: listed apart in the source
[10] = system: CYP3A4; test: CLZD_CYP3A4: Change in expression of CYP3A4 (primary human hepatocytes); format: cell-based; conditions: 24 hr
Outline: (§1)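 Primary human hepatocytes exposed to 5 concentrations (0.004-40 µM) for 6, 24 or 48 hr; transcript levels measured by multiplexed quantitative nuclease protection assay. Markers of nuclear receptor pathways: CYP1A1 (AhR), CYP2B6 and ABCB1 (CAR), CYP3A4 (PXR).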

[11] = target: T2, LXRa (NR1H3) (Homo sapiens, UniProt Q13133); test: ATG_LXRa_TRANS: Factorial reporter gene assay (HepG2); format: cell-based
T2 construct: expressed in transfected cells; host or cells: HepG2
T2 sequence (Q13133 1-447): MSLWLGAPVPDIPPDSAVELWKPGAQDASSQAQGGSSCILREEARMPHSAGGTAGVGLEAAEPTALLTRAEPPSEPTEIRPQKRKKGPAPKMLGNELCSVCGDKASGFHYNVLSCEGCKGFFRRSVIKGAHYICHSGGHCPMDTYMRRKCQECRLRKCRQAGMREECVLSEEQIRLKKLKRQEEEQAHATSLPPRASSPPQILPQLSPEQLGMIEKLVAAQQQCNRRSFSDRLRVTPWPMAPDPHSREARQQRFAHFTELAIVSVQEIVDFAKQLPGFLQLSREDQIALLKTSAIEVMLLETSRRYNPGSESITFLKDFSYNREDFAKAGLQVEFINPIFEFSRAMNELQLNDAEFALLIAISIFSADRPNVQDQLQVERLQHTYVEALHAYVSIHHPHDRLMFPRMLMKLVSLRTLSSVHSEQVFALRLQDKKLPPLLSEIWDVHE
Method: (§2) A multiple reporter transcription unit (MRTU) library consisting of 48 transcription factor binding sites was transfected into the HepG2 human liver hepatoma cell line. In addition to the cis-acting reporter genes (CIS), a modification of the approach was used to generate a trans-system (TRANS) with a mammalian one-hybrid assay consisting of an additional 25 MRTU library reporting the activity of nuclear receptor super-family members. […] These assays were performed by Attagene Inc. (Morrisville NC) under contract to EPA.
(§3) In addition to the cis-acting reporter genes (CIS), a modification of the approach was used to generate a trans-system (TRANS) with a mammalian one-hybrid assay consisting of an additional 25 MRTU library reporting the activity of nuclear receptor super-family members. […] Chemicals were then tested in the CIS and TRANS assays at seven concentrations starting at the MTC and followed by three-fold serial dilutions. These assays were performed by Attagene Inc. (Morrisville NC) under contract to EPA. Detailed description of the methods, data and analysis methods for this dataset will be presented in a separate publication.

[12] = target: T3, AHR (aryl hydrocarbon receptor) (Homo sapiens, UniProt P35869); test: ATG_Ahr_CIS: Factorial reporter gene assay (multiplexed transcription reporter, HepG2); format: cell-based; conditions: HepG2 reporter
T3 construct: endogenous in cells; host or cells: HepG2
T3 sequence (P35869 11-848): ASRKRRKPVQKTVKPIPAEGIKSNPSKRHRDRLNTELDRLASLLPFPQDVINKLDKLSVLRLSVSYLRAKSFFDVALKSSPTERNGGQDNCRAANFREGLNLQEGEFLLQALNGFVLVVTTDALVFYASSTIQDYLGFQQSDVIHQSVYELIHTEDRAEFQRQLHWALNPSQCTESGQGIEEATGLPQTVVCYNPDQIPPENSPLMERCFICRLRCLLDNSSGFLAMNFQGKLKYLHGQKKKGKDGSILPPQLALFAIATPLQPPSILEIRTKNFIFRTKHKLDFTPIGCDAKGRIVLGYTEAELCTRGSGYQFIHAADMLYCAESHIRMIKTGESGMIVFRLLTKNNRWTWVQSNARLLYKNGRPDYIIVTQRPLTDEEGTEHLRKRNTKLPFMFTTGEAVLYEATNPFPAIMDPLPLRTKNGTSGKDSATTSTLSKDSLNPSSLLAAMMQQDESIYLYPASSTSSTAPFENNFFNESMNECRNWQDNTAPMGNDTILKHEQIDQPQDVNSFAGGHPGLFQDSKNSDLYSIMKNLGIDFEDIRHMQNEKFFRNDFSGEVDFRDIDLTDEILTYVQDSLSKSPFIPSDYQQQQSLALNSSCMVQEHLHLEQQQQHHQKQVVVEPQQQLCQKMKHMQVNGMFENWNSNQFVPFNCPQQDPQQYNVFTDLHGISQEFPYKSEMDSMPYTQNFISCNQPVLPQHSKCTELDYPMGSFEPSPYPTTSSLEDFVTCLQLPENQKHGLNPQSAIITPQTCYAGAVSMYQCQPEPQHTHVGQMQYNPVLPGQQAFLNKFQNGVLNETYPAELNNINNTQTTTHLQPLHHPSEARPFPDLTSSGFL
Outline: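 HepG2 cells transfected with multiplexed reporter libraries: cis-acting binding-site reporters (CIS) and a one-hybrid nuclear-receptor trans system (TRANS). Chemicals tested at seven concentrations, starting at the maximum tolerated concentration with three-fold serial dilutions.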

[13] = target: T4, CAR (NR1I3) (Homo sapiens, UniProt Q14994); test: ATG_PBREM_CIS: Factorial reporter gene assay (HepG2); format: cell-based; parameters: endogenous in cells; host or cells: HepG2; conditions: HepG2 reporter
T4 sequence (Q14994 1-352): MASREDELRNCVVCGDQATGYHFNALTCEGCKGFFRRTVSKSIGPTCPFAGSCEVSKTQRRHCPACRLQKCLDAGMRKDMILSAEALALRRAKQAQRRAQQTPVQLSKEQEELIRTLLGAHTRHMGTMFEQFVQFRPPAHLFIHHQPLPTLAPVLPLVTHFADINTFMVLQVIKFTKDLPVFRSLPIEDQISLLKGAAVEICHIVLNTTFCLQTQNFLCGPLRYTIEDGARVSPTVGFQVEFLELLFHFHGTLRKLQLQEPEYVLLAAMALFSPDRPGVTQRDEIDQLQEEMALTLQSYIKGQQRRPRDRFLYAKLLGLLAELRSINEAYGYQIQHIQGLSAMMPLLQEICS
Method: as §2, §3

[14] = system: CYP2B6; test: CLZD_CYP2B6: Change in expression of CYP2B6 (primary human hepatocytes); format: cell-based; conditions: 24 hr
Outline: as §1

| SMILES | CHR_Rat_Liver_3_NeoplasticLesion ([1]; chronic study, rat liver) | NCGC_LXR_Agonist [2] | ATG_PXRE_CIS [3] | CHR_Rat_Liver_1_AnyLesion ([4]; chronic study, rat liver) | CHR_Rat_Liver_2_PreneoplasticLesion ([5]; chronic study, rat liver) | CLZD_HMGCS2_24 [6] | CHR_Mouse_Liver_3_NeoplasticLesion [7] | CHR_Mouse_Liver_1_AnyLesion ([8]; chronic study, mouse liver) | CHR_Mouse_Liver_2_PreneoplasticLesion [9] | CLZD_CYP3A4_24 [10] | ATG_LXRa_TRANS ([11]; HepG2 reporter) | ATG_Ahr_CIS [12] | ATG_PBREM_CIS [13] | CLZD_CYP2B6_24 [14] | CHR_Rat_Liver_3_NeoplasticLesion ([1]; chronic rat study, liver) | CHR_Rat_Liver_1_AnyLesion ([4]; chronic rat study, liver) | CHR_Rat_Liver_2_PreneoplasticLesion ([5]; chronic rat study, liver) | CHR_Mouse_Liver_1_AnyLesion ([8]; chronic mouse study, liver) | ATG_LXRa_TRANS ([11]; HepG2) |
| --- | --- | --- | --- | --- | --- | --- | --- | --- | --- | --- | --- | --- | --- | --- | --- | --- | --- | --- | --- |
| CCCOc1nn(C(=O)[N-]S(=O)(=O)c2ccccc2C(=O)OC)c(=O)n1C.[Na+] [r264] | 0 | 4.648 | 4.252 | 0 | 0 |  |  |  |  |  |  |  |  |  |  |  |  |  |  |
| COc1cc(OC)nc(Sc2cccc(Cl)c2C(=O)[O-])n1.[Na+] [r275] | 0 |  |  | 6 | 6 | 5.29 | 6 | 6 | 6 | 4.874 |  |  |  |  |  |  |  |  |  |
| CCOC(=O)C(C)Oc1ccc(Oc2cnc3cc(Cl)ccc3n2)cc1 (stereo not shown) [r279] | 0 |  | 4.523 | 6 | 0 | 5.409 | 6 | 6 | 6 |  | 4.824 |  |  |  |  |  |  |  |  |
| CCCN(CC)CC1COC2(CCC(C(C)(C)C)CC2)O1 (stereo not shown) [r286] | 0 |  | 4.886 | 0 | 0 |  |  |  |  | 5.192 |  | 4.444 | 4.721 | 4.532 |  |  |  |  |  |
| C[N+]1(C)CCCCC1.[Cl-] [row 193] |  |  |  |  |  | 5.889 |  |  |  |  |  |  |  |  | 0 | 0 | 0 |  |  |
| O=C(NC(=O)c1c(F)cccc1F)Nc1ccc(OC(F)(F)C(F)OC(F)(F)F)c(Cl)c1 (stereo not shown) [row 223] |  | 4.536 |  |  |  |  |  |  |  |  |  |  |  |  | 0 | 6 | 0 | 6 | 4.523 |
